Target: HCV NS3-4A serine protease (full-length NS3-4A protein) (Hepatitis C virus genotype 1a (isolate 1) (HCV), UniProt P26664)
Assay: HCV NS3-4A protease assay
Type: biochemical, HCV genotype 1a
Settings: strain HCV-1, fluorogenic peptide substrate, read-out: Protease assay Ex. 12 IC50
Protocol: The inhibitory activity of certain compounds of Table A against HCV NS3-4A serine protease is determined in a homogenous assay using the full-length NS3-4A protein (genotype 1a, strain HCV-1) and a commercially available internally-quenched fluorogenic peptide substrate as described by Taliani, M., et al. 1996 Anal. Biochem. 240:60-67, which is incorporated by reference in its entirety.

Chain of HCV NS3-4A serine protease (full-length NS3-4A protein) (P26664 1027-1657): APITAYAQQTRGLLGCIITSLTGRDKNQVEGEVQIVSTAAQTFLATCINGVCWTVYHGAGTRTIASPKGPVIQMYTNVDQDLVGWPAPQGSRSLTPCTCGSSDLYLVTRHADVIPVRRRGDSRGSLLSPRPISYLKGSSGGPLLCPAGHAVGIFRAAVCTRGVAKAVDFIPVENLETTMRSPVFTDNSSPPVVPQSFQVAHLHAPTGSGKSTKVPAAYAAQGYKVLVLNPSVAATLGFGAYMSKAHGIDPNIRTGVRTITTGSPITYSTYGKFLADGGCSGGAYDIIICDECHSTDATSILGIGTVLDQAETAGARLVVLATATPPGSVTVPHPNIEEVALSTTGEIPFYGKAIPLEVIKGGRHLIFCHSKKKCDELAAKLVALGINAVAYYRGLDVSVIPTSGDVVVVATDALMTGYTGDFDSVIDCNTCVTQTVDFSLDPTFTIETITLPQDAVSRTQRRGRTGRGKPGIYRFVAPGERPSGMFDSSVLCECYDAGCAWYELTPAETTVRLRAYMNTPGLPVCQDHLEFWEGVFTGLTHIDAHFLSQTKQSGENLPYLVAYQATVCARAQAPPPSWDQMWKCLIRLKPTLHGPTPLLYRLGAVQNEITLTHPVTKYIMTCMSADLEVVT
Chain of HCV NS3-4A serine protease (full-length NS3-4A protein) (P26664 1658-1711 partner): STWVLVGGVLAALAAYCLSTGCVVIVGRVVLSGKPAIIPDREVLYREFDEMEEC

Structure (SMILES)	IC50
C=C[C@@H]1C[C@]1(NC(=O)[C@@H]1C[C@@]2(CN1C(=O)[C@@H](NC(=O)[C@@H](NC(=O)[C@@H]1CCCCN1C(C)C)C1CCCCC1)C(C)(C)C)C(C)(C)C21CCC1)C(=O)NS(=O)(=O)N1CC[C@H](F)C1 [Compound 46, (5R,8S)-7-[(2S)-2-{[(2S)-2-cyclohexyl-2-({[(2S)-1-isopropylpiperidin-2-yl]carbonyl}amino)acetyl]amino}-3,3-dimethylbutanoyl]-N-[(1R,2S)-1-({[(3S)-3-fluoropyrrolidin-1-yl]sulfonyl}carbamoyl)-2-vinylcyclopropyl]-10,10-dimethyl-7-azadispiro[3.0.4.1]decane-8-carboxamide]	2 nM
C=C[C@@H]1C[C@]1(NC(=O)[C@@H]1C[C@@]2(CN1C(=O)[C@@H](NC(=O)[C@@H](NC(=O)[C@@H]1CCCN1CC)C1CCCCC1)C1(C)CCOCC1)C(C)(C)C21CCC1)C(=O)NS(=O)(=O)N1CCCC1 [Compound 125, (5R,8S)-7-[(2S)-2-{[(2S)-2-cyclohexyl-2-({[(2S)-1-ethylpyrrolidin-2-yl]carbonyl}amino)acetyl]amino}-2-(4-methyltetrahydro-2H-pyran-4-yl)acetyl]-10,10-dimethyl-N-{(1R,2S)-1-[(pyrrolidin-1-ylsulfonyl)carbamoyl]-2-vinylcyclopropyl}-7-azadispiro[3.0.4.1]decane-8-carboxamide]	< 0.3 nM
C=C[C@@H]1C[C@]1(NC(=O)[C@@H]1C[C@@]2(CN1C(=O)[C@@H](NC(=O)[C@@H](NC(=O)[C@@H]1CCCN1CC)C1CCCCC1)C1(C)CCOCC1)C(C)(C)C21CCC1)C(=O)NS(=O)(=O)N(CC)CC [Compound 154, (5R,8S)-7-[(2S)-2-{[(2S)-2-cyclohexyl-2-({[(2S)-1-ethylpyrrolidin-2-yl]carbonyl}amino)acetyl]amino}-2-(4-methyltetrahydro-2H-pyran-4-yl)acetyl]-N-[(1R,2S)-1-{[(diethylamino)sulfonyl]carbamoyl}-2-vinylcyclopropyl]-10,10-dimethyl-7-azadispiro[3.0.4.1]decane-8-carboxamide]	2.8 nM
CC[C@@H]1C[C@]1(NC(=O)[C@@H]1C[C@@]2(CN1C(=O)[C@@H](NC(=O)[C@@H](NC(=O)[C@H]1CCCCN1C(C)C)C1CCCCC1)C(C)(C)C)C(C)(C)C21CCC1)C(=O)NS(=O)(=O)N(CC)CC [Compound 121, (5R,8S)-7-[(2S)-2-{[(2S)-2-cyclohexyl-2-({[(2R)-1-isopropylpiperidin-2-yl]carbonyl}amino)acetyl]amino}-3,3-dimethylbutanoyl]-N-[(1R,2R)-1-{[(diethylamino)sulfonyl]carbamoyl}-2-ethylcyclopropyl]-10,10-dimethyl-7-azadispiro[3.0.4.1]decane-8-carboxamide]	7 nM
C=C[C@@H]1C[C@]1(NC(=O)[C@@H]1C[C@@]2(CN1C(=O)[C@@H](NC(=O)[C@@H](NC(=O)c1c[nH]c3ccccc13)C1CCCCC1)C(C)(C)C)C(C)(C)C21CCC1)C(=O)NS(=O)(=O)N1CCCC1 [Compound 189, (5R,8S)-7-[(2S)-2-({cyclohexyl[(1H-indol-3-ylcarbonyl)amino]acetyl}amino)-3,3-dimethylbutanoyl]-10,10-dimethyl-N-{(1R,2S)-1-[(pyrrolidin-1-ylsulfonyl)carbamoyl]-2-vinylcyclopropyl}-7-azadispiro[3.0.4.1]decane-8-carboxamide]	25 nM
C=C[C@@H]1C[C@]1(NC(=O)[C@@H]1C[C@@]2(CN1C(=O)[C@@H](NC(=O)[C@@H](NC(=O)[C@H]1CCCCN1C(C)C)C1CCCCC1)C(C)(C)C)C(C)(C)C21CCC1)C(=O)NS(=O)(=O)N(CC)CC [Compound 65, (5R,8S)-7-[(2S)-2-{[(2S)-2-cyclohexyl-2-({[(2R)-1-isopropylpiperidin-2-yl]carbonyl}amino)acetyl]amino}-3,3-dimethylbutanoyl]-N-[(1R,2S)-1-{[(diethylamino)sulfonyl]carbamoyl}-2-vinylcyclopropyl]-10,10-dimethyl-7-azadispiro[3.0.4.1]decane-8-carboxamide]	4.5 nM
C=C[C@@H]1C[C@]1(NC(=O)[C@@H]1C[C@@]2(CN1C(=O)[C@@H](NC(=O)[C@@H](NC(=O)[C@@H](OC)c1ccccc1)C1CCCCC1)C(C)(C)C)C(C)(C)C21CCC1)C(=O)NS(=O)(=O)N1CCCC1 [Compound 193, (5R,8S)-7-{(2S)-2-[(cyclohexyl{[(2S)-2-methoxy-2-phenylacetyl]amino}acetyl)amino]-3,3-dimethylbutanoyl}-10,10-dimethyl-N-{(1R,2S)-1-[(pyrrolidin-1-ylsulfonyl)carbamoyl]-2-vinylcyclopropyl}-7-azadispiro[3.0.4.1]decane-8-carboxamide]	25 nM
[2H]C([2H])([2H])C([2H])([2H])N(C([2H])([2H])C([2H])([2H])[2H])S(=O)(=O)NC(=O)[C@@]1(NC(=O)[C@@H]2C[C@@]3(CN2C(=O)[C@@H](NC(=O)[C@@H](NC(=O)[C@@H]2CCCCN2C(C)C)C2CCCCC2)C(C)(C)C)C(C)(C)C32CCC2)C[C@H]1C=C [Compound 149, (5R,8S)-7-[(2S)-2-{[(2S)-2-cyclohexyl-2-({[(2S)-1-isopropylpiperidin-2-yl]carbonyl}amino)acetyl]amino}-3,3-dimethylbutanoyl]-N-[(1R,2S)-1-{[(d10-diethylamino)sulfonyl]carbamoyl}-2-vinylcyclopropyl]-10,10-dimethyl-7-azadispiro[3.0.4.1]decane-8-carboxamide-d10]	1.5 nM
C=C[C@@H]1C[C@]1(NC(=O)[C@@H]1C[C@@]2(CN1C(=O)[C@@H](NC(=O)[C@@H](NC(=O)c1cc(C)nn1C(C)(C)C)C1CCCCC1)C(C)(C)C)C(C)(C)C21CCC1)C(=O)NS(=O)(=O)N1CCCC1 [Compound 183, (5R,8S)-7-[(2S)-2-{[{[(1-tert-butyl-3-methyl-1H-pyrazol-5-yl)carbonyl]amino}(cyclohexyl)acetyl]amino}-3,3-dimethylbutanoyl]-10,10-dimethyl-N-{(1R,2S)-1-[(pyrrolidin-1-ylsulfonyl)carbamoyl]-2-vinylcyclopropyl}-7-azadispiro[3.0.4.1]decane-8-carboxamide]	95 nM
C=C[C@@H]1C[C@]1(NC(=O)[C@@H]1C[C@@]2(CN1C(=O)[C@@H](NC(=O)[C@@H](NC(=O)[C@@H]1CCCCN1C(C)C)C1CCCCC1)C(C)C)C(C)(C)C21CCC1)C(=O)NS(=O)(=O)N(CC)CC [Compound 132, (5R,8S)-7-[(2S)-2-{[(2S)-2-cyclohexyl-2-({[(2S)-1-isopropylpiperidin-2-yl]carbonyl}amino)acetyl]amino}-3-methylbutanoyl]-N-[(1R,2S)-1-{[(diethylamino)sulfonyl]carbamoyl}-2-vinylcyclopropyl]-10,10-dimethyl-7-azadispiro[3.0.4.1]decane-8-carboxamide]	2.8 nM
C=C[C@@H]1C[C@]1(NC(=O)[C@@H]1C[C@@]2(CN1C(=O)[C@@H](NC(=O)[C@@H](NC(=O)[C@@H]1CCCCN1C(C)C)C1CCCCC1)C(C)(C)C)C(C)(C)C21CCC1)C(=O)NS(=O)(=O)N(CC)CCC [Compound 106, (5R,8S)-7-[(2S)-2-{[(2S)-2-cyclohexyl-2-({[(2S)-1-isopropylpiperidin-2-yl]carbonyl}amino)acetyl]amino}-3,3-dimethylbutanoyl]-N-[(1R,2S)-1-({[ethyl(propyl)amino]sulfonyl}carbamoyl)-2-vinylcyclopropyl]-10,10-dimethyl-7-azadispiro[3.0.4.1]decane-8-carboxamide]	10 nM
